Tests used:
[1] = test system: MAC formation in normal human serum; assay: Human serum MAC formation assay (zymosan-coated plates, 50% normal human serum); conditions: 50% normal human serum with EGTA, 37° C. 30 minutes
Procedure: MAC deposition assay using normal human serum was applied to evaluate compound potency under physiologically relevant conditions. Black Maxisorp plates (Thermo Fisher, 437111) were coated with preactivated zymosan (Complement Technology, B400) at 0.5 mg/mL in carbonate buffer (pH 9.5, Sigma, C3041) at room temperature overnight. Compounds were serial diluted 3-fold in 100% DMSO for a 10-point dose-response curve. Normal human serum (Complement Technology, NHS) was diluted to 50% (v/v) with the gelatin buffer (4.2 mM HEPES pH 7.4, 0.15 mM CaCl2, 141 mM NaCl, 4.5 mM MgCl2, 0.1% gelatin) containing 20 mM EGTA or 20 mM EDTA. In conical bottom 96-well plates, 1 μL compound and 99 μL of serum-EGTA were mixed. Serum-EDTA was used as baseline control. The serum-compound mixture was incubated at room temperature for 15 minutes before being transferred to the washed zymosan plate for complement activation at 37° C. for 30 minutes. The reaction was terminated by decanting the reaction mixture and adding blocking buffer (Thermo Fisher, 37539) for 20 minutes. MAC formation on the ELISA plate was detected using 0.2 μg/mL mouse anti-human C9 neoepitope monoclonal antibody (Thermo Fisher, MA5-33373) diluted in phosphate-buffered saline with 0.05% Tween-20 (PBST). A goat anti-mouse IgG-HRP antibody (Thermo Fisher, A16072) was used at 1:2000 in PBST as secondary antibody. After washing, the reaction was developed using QuantaBlu (Thermo Fisher, 15169) for 20 minutes at room temperature. The plates were read at 325 nm excitation and 420 nm emission wavelengths. Percent inhibition values were generated using the baseline (EDTA-serum) and the maximum control (EGTA-serum). An IC50 for each compound was calculated using 4-parameter logistic regression.

human C3bBb = human C3bBb (Homo sapiens (Human), UniProt P00751); assay: Human C3bBb enzyme assay (C3a generation from C3, ELISA); type: biochemical; conditions: starred values: assay conducted with 1 nM C3b:Bb enzyme; read-out: Human C3b:Bb IC50 Avg
Procedure: Compounds disclosed herein were evaluated for their potency to inhibit human C3bBb in a biochemical assay. To generate active C3bBb complex in vitro, purified human C3b (Complement Technology, A114), CFB (Complement Technology, A135) and CFD (Complement Technology, A136) were mixed in a 1:1:1 ratio to a final concentration of 1 μM each in the C3bBb assay buffer (PBS pH 7.4, 100 μM NiCl2, 0.05% (w/v) CHAPS). The reaction mix was incubated at room temperature for 30 minutes on a rotating platform. […] On the day of the enzyme assay, a reaction mixture containing 3 nM C3bBb complex and 1 μM purified human C3 (Complement Technology, A113) was prepared in the C3bBb assay buffer. Compounds were serial diluted 3-fold in 100% DMSO for a 10-point dose-response curve. A 0.5 μL aliquot of diluted compound solution was transferred to a conical bottom 96-well plate, before 49.5 μL of the reaction mix was added to each well to initiate the reaction. The plate was incubated for 1 hour at room temperature. […] The generation of C3a from C3 by the C3bBb complex was measured using the MicroVue C3a Plus EIA ELISA kit (Quidel, A031). The concentration of C3a from each well was calculated using a standard curve. Percent inhibition values were generated using the baseline (C3 only) and the maximum control (DMSO instead of compound), and IC50 of each compound was calculated using 4-parameter logistic regression.

Sequence of human C3bBb (P00751 260-764): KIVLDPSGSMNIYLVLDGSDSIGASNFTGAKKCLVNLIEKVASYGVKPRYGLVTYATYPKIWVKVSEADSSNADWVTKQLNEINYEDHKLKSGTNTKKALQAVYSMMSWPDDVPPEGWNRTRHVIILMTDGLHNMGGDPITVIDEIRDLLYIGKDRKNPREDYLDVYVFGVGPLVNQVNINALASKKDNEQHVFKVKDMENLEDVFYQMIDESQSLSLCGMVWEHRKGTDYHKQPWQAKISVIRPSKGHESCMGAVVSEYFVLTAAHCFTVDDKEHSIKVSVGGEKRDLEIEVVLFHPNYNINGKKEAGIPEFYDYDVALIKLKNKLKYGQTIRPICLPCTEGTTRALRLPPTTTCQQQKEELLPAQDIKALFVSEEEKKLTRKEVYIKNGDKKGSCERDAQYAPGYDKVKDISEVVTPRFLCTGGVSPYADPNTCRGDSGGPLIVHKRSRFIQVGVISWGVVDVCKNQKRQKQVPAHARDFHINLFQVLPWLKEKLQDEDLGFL
Sequence of human C3bBb (P01024 23-667 partner): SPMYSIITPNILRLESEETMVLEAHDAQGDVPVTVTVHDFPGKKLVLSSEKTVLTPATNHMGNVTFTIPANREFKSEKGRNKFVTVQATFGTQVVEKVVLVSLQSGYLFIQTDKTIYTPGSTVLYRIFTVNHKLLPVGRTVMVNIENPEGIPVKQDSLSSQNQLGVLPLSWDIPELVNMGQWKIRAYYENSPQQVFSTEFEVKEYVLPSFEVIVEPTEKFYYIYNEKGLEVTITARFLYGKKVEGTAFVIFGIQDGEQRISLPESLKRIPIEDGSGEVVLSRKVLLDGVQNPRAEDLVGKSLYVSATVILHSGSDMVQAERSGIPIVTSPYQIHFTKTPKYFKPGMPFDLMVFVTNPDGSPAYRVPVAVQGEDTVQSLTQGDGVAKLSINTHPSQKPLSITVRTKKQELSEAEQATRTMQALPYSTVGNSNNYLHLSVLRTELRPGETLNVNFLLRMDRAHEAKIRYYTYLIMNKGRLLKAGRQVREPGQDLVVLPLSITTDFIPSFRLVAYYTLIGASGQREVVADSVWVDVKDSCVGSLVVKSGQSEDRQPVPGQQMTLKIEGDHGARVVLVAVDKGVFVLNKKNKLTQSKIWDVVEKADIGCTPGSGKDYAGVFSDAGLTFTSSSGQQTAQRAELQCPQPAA
Sequence of human C3bBb (P01024 749-1663 partner): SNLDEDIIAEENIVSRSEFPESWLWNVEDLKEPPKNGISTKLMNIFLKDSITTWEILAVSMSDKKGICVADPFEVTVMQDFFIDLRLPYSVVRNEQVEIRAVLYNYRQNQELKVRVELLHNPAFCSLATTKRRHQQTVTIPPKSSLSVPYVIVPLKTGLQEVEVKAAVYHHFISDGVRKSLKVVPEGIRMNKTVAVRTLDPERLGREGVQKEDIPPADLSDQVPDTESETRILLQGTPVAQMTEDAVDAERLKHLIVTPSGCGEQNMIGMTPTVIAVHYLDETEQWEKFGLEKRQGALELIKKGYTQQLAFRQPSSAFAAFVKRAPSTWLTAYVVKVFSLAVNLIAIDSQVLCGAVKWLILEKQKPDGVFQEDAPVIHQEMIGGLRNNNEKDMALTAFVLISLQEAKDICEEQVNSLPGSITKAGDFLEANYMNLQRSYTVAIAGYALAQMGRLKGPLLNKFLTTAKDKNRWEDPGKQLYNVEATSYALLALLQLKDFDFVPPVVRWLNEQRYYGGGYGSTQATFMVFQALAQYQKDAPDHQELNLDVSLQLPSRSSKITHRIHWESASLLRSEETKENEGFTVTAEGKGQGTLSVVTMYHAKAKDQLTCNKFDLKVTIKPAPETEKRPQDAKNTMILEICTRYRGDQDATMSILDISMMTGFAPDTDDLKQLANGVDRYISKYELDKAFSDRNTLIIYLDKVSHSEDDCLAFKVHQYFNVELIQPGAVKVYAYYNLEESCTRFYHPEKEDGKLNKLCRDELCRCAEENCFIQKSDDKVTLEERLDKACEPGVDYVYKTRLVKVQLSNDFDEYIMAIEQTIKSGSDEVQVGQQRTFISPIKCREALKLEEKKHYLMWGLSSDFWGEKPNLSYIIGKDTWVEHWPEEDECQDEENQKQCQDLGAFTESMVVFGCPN

IC50 (human C3bBb) [nM] | Compound | IC50 [1] [nM]
< 10 | COc1cc(C)c2[nH]ccc2c1CN1CC[C@]2(C[C@H]1c1ccc(C(=O)O)cc1)C[C@@H](OC(F)F)C2 (single isomer, unassigned) [Example 56, 4-((2R,4s,6S)-2-(difluoromethoxy)-7-((5-methoxy-7-methyl-1H-indol-4-yl)methyl)-7-azaspiro[3.5]nonan-6-yl)benzoic acid or 4-((2S,4r,6S)-2-(difluoromethoxy)-7-((5-methoxy-7-methyl-1H-indol-4-yl)methyl)-7-azaspiro[3.5]nonan-6-yl)benzoic acid] | < 100
10 to 25 | COc1cc(C)c2[nH]ccc2c1CN1CC[C@]2(C[C@H]1c1ccc(C(=O)O)cc1)C[C@@](C)(O)C2 (single isomer, unassigned) [Example 60, 4-((2R,4s,6S)-2-hydroxy-7-((5-methoxy-7-methyl-1H-indol-4-yl)methyl)-2-methyl-7-azaspiro[3.5]nonan-6-yl)benzoic acid or 4-((2S,4r,6S)-2-hydroxy-7-((5-methoxy-7-methyl-1H-indol-4-yl)methyl)-2-methyl-7-azaspiro[3.5]nonan-6-yl)benzoic acid] | 100 to 200
< 10 | COc1cc(C)c2[nH]ccc2c1CN1CC[C@]2(C[C@H]1c1ccc(C(=O)O)cc1)C[C@@H](F)C2 (single isomer, unassigned) [Example 63, 4-((2R,4s,6S)-2-fluoro-7-((5-methoxy-7-methyl-1H-indol-4-yl)methyl)-7-azaspiro[3.5]nonan-6-yl)benzoic acid or 4-((2S,4r,6S)-2-fluoro-7-((5-methoxy-7-methyl-1H-indol-4-yl)methyl)-7-azaspiro[3.5]nonan-6-yl)benzoic acid] | < 100
< 10 | COc1cc(C)c2[nH]ccc2c1CN1CC[C@@]2(C[C@H]1c1ccc(C(=O)O)cc1)CC2(F)F (stereo in doubt) [Example 30, 4-((3R,5S)- or ((3S,5S)-1,1-difluoro-6-((5-methoxy-7-methyl-1H-indol-4-yl)methyl)-6-azaspiro[2.5]octan-5-yl)benzoic acid] | 100 to 200

Second part, the molecule before the results:

Compound | IC50 (human C3bBb) [nM] | IC50 [1] [nM]
COc1cc(C)c2[nH]ccc2c1CN1CC[C@]2(CCC(F)(F)C2)C[C@H]1c1ccc(C(=O)O)cc1 (single isomer, unassigned) [Example 35, 4-(5R,7S)-(2,2-difluoro-8-((5-methoxy-7-methyl-1H-indol-4-yl)methyl)-8-azaspiro[4.5]decan-7-yl)benzoic acid or 4-(5S,7S)-(2,2-difluoro-8-((5-methoxy-7-methyl-1H-indol-4-yl)methyl)-8-azaspiro[4.5]decan-7-yl)benzoic acid] | < 10 | < 100
COc1cc(C)c2[nH]ccc2c1CN1CC[C@]2(CCC(F)(F)C2)C[C@H]1c1ccc(C(=O)O)cc1 (single isomer, unassigned) [Example 36, 4-(5R,7S)-(2,2-difluoro-8-((5-methoxy-7-methyl-1H-indol-4-yl)methyl)-8-azaspiro[4.5]decan-7-yl)benzoic acid or 4-(5S,7S)-(2,2-difluoro-8-((5-methoxy-7-methyl-1H-indol-4-yl)methyl)-8-azaspiro[4.5]decan-7-yl)benzoic acid] | < 10 | < 100
COc1cc(C)c2[nH]ccc2c1CN1CC[C@]2(C[C@H]1c1ccc(C(=O)O)cc1)C[C@@H](C(F)F)C2 (single isomer, unassigned) [Example 46, 4-((2R,4s,6S)-2-(difluoromethyl)-7-((5-methoxy-7-methyl-1H-indol-4-yl)methyl)-7-azaspiro[3.5]nonan-6-yl)benzoic acid or 4-((2S,4r,6S)-2-(difluoromethyl)-7-((5-methoxy-7-methyl-1H-indol-4-yl)methyl)-7-azaspiro[3.5]nonan-6-yl)benzoic acid] | < 10 | 100 to 200
COc1cc(C)c2[nH]ccc2c1CN1CC[C@]2(C[C@H]1c1ccc(C(=O)O)cc1)C[C@@H](C(F)F)C2 (single isomer, unassigned) [Example 47, 4-((2R,4s,6S)-2-(difluoromethyl)-7-((5-methoxy-7-methyl-1H-indol-4-yl)methyl)-7-azaspiro[3.5]nonan-6-yl)benzoic acid or 4-((2S,4r,6S)-2-(difluoromethyl)-7-((5-methoxy-7-methyl-1H-indol-4-yl)methyl)-7-azaspiro[3.5]nonan-6-yl)benzoic acid] | < 10 | < 100
COc1cc(C)c2[nH]ccc2c1CN1CC[C@]2(C[C@H]1c1ccc(C(=O)O)cc1)C[C@@H](C(F)(F)F)C2 (single isomer, unassigned) [Example 48, 4-((2R,4s,6S)-7-((5-methoxy-7-methyl-1H-indol-4-yl)methyl)-2-(trifluoromethyl)-7-azaspiro[3.5]nonan-6-yl)benzoic acid or 4-((2S,4r,6S)-7-((5-methoxy-7-methyl-1H-indol-4-yl)methyl)-2-(trifluoromethyl)-7-azaspiro[3.5]nonan-6-yl)benzoic acid] | < 10 | < 100
COc1cc(C)c2[nH]ccc2c1CN1CC[C@]2(C[C@H]1c1ccc(C(=O)O)cc1)C[C@@H](C(F)(F)F)C2 (single isomer, unassigned) [Example 49, 4-((2R,4s,6S)-7-((5-methoxy-7-methyl-1H-indol-4-yl)methyl)-2-(trifluoromethyl)-7-azaspiro[3.5]nonan-6-yl)benzoic acid or 4-((2S,4r,6S)-7-((5-methoxy-7-methyl-1H-indol-4-yl)methyl)-2-(trifluoromethyl)-7-azaspiro[3.5]nonan-6-yl)benzoic acid] | < 10 | < 100
COc1cc(C)c2[nH]ccc2c1CN1CC[C@]2(C[C@H]1c1ccc(C(=O)O)cc1)C[C@@H](C#N)C2 (single isomer, unassigned) [Example 52, 4-((2R,4s,6S)-2-cyano-7-((5-methoxy-7-methyl-1H-indol-4-yl)methyl)-7-azaspiro[3.5]nonan-6-yl)benzoic acid or 4-((2S,4r,6S)-2-cyano-7-((5-methoxy-7-methyl-1H-indol-4-yl)methyl)-7-azaspiro[3.5]nonan-6-yl)benzoic acid] | < 10 | < 100
COc1cc(C)c2[nH]ccc2c1CN1CC[C@]2(C[C@H]1c1ccc(C(=O)O)cc1)C[C@@H](C#N)C2 (single isomer, unassigned) [Example 55, 4-((2R,4s,6S)-2-cyano-7-((5-methoxy-7-methyl-1H-indol-4-yl)methyl)-7-azaspiro[3.5]nonan-6-yl)benzoic acid or 4-((2S,4r,6S)-2-cyano-7-((5-methoxy-7-methyl-1H-indol-4-yl)methyl)-7-azaspiro[3.5]nonan-6-yl)benzoic acid] | < 10 | < 100
COc1cc(C)c2[nH]ccc2c1CN1CC[C@]2(C[C@H]1c1ccc(C(=O)O)cc1)C[C@@H](OC(F)F)C2 (single isomer, unassigned) [Example 57, 4-((2R,4s,6S)-2-(difluoromethoxy)-7-((5-methoxy-7-methyl-1H-indol-4-yl)methyl)-7-azaspiro[3.5]nonan-6-yl)benzoic acid or 4-((2S,4r,6S)-2-(difluoromethoxy)-7-((5-methoxy-7-methyl-1H-indol-4-yl)methyl)-7-azaspiro[3.5]nonan-6-yl)benzoic acid] | < 10 | < 100
COc1cc(C)c2[nH]ccc2c1CN1CC[C@]2(C[C@H]1c1ccc(C(=O)O)cc1)C[C@@H](F)C2 (single isomer, unassigned) [Example 62, 4-((2R,4s,6S)-2-fluoro-7-((5-methoxy-7-methyl-1H-indol-4-yl)methyl)-7-azaspiro[3.5]nonan-6-yl)benzoic acid or 4-((2S,4r,6S)-2-fluoro-7-((5-methoxy-7-methyl-1H-indol-4-yl)methyl)-7-azaspiro[3.5]nonan-6-yl)benzoic acid] | < 10 | < 100

From patent US20250289804A1, “SUBSTITUTED INDOLE COMPOUNDS AND METHODS OF USE THEREOF” (NOVARTIS PHARMA AG, priority 2021, published 2025)
